Data taken from patent US20110166121A1 (LG LIFE SCIENCES LTD., priority 2008, published 2011).
pIC50, pKi: −log10 of the molar value. Several values for one entry are separate records, joined by “and”; a condition that tells them apart may be missing. Equal entries are not always repeated.

Assays:
Human P2Y12 receptor = molecular target: T1, Human P2Y12 receptor (Homo sapiens, UniProt Q9H244); test: Human P2Y12 receptor cell membrane binding assay with [3H] 2-Mes-ADP; conditions: 1 nM [3H] 2-Mes-ADP; for pIC50: membranes of HEK cells expressing P2Y12 receptor, read-out: Binding activity (IC50); for inhibition at 30 µM: 30 μM compound
T1 construct: expressed in transfected cells; host or cells: HEK cells
T1 sequence (Q9H244 whole entry): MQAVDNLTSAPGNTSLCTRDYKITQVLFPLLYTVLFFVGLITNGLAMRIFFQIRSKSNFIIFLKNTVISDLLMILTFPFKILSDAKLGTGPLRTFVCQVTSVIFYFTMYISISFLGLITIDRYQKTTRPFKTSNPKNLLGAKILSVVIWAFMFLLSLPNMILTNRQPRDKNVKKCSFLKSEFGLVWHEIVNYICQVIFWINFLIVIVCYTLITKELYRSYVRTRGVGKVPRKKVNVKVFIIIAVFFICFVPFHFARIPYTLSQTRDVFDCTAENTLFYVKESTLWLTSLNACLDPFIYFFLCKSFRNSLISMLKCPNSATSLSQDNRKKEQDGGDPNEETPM
Description: Human P2Y12 Receptor Cell Membrane Binding Assay with [^3H] 2-Mes-ADP
Whether test compounds bind to P2Y12 receptor is measured by [3H]-2MesADP binding in HEK cells expressing P2Y12 receptor. The efficacy according to the amount of test compound can be known through the above test, competitive binding test to P2Y12 receptor, in which the binding material (2-Mes-ADP) is labeled with radioactivity isotope and then the extent of inhibition against the binding of radioactively labeled material is measured.
Preparation of P2Y12 Membrane Protein Fraction
Harvested P2Y12 cells were resuspended with Hypotonic buffer (10 mM HEPES, 10 mM NaCl, 1 mM EDTA, 1 mM EGTA pH 7.4) containing protease inhibitor cocktail. Following the incubation on ice for 15 min, cells were homogenized on ice (Glass/Teflon homogenizer; 1,000 rpm, 10 strokes). The supernant was taken from centrifugation at 500×g for 15 min and then recentrifuged the supernant at 30,000 rpm for 30 min. The membrane pellet was adjusted to 1 mg/mL concentration and stored at −80° C.
P2Y12 Receptor Cell Membrane Binding Assay with [3H] 2-Mes-ADP
The volume of 100 μL of 200 μg membrane protein was aliquoted into 96 well plate. 50 μL volume of test compounds and [^3H] 2-Mes-ADP (final: 1 nM) were added into each well. The total reaction of 0.2 ml/well was incubated for 1 hour at R.T. The reaction was terminated by filtration through GF/B filter using a 96-well cell harvester. […] Radioactivity bound to P2Y12 receptor membrane was counted in a scintillation counter. Total binding was determined with CPM of test group having no compound and non-specific binding was determined with CPM of test group containing 10 μM 2-Mes-ADP. Binding inhibition percent was calculated as follows: [100−(specific binding in the presence of test material/specific binding in the absence of test material×100)].

[1] = tested on: Human platelet aggregation caused by ADP; test: Inhibition of ADP-induced platelet aggregation (Mimic-human PRP); format: cell-based; conditions: 20 μM ADP, human platelet concentrate diluted with PPP, absorption at 595 nm
Outline: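 Human PRP diluted with PPP to 3–4×10^8 platelets/mL was preincubated 20 min at room temperature with compound (0.01–30 μM, DMSO), then stimulated with 20 μM ADP. Aggregation read as A595 increase at 3 min versus 0 and 20 μM ADP controls; Ki from sigmoidal non-linear regression.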

| inhibition at 30 µM (Human P2Y12 receptor) [%] | Structure (SMILES) | pIC50 (Human P2Y12 receptor) | pKi [1] |
| --- | --- | --- | --- |
|  | CCCc1cc2c(N3CCn4c(nnc4C(F)(F)F)C3)nc(N3CCNC(=O)C3)nc2s1 [Example 1-1, 4-[6-Propyl-4-(3-trifluoromethyl-5,6-dihydro-8H-[1,2,4]triazolo[4,3-a]pyrazin-7-yl)-thieno[2,3-d]pyrimidin-2-yl]-piperazin-2-one] | 7.70 | 6.89 |
|  | CCCc1cc2c(N3CCn4c(nnc4C(F)(F)F)C3)nc(N3CCN(C)CC3)nc2s1 [Example 1-3, 7-[2-(4-Methyl-piperazin-1-yl)-6-propyl-thieno[2,3-d]pyrimidin-4-yl]-3-trifluoromethyl-5,6,7,8-tetrahydro-[1,2,4]triazolo[4,3-a]pyrazine] | 7.04 | 6.79 |
|  | CCCc1cc2c(N3CCn4c(nnc4C(F)(F)F)C3)nc(N3CCNCC3)nc2s1 [Example 1-4, 7-(2-piperazin-1-yl-6-propyl-thieno[2,3-d]pyrimidin-4-yl)-3-trifluoromethyl-5,6,7,8-tetrahydro-[1,2,4]triazolo[4,3-a]pyrazine] | 7.19 | 6.52 |
|  | CCCc1cc2c(N3CCn4c(nnc4C(F)(F)F)C3)nc(N3CCN(CCO)CC3)nc2s1 [Example 1-5, 2-{4-[6-Propyl-4-(3-trifluoromethyl-5,6-dihydro-8H-[1,2,4]triazolo[4,3-a]pyrazin-7-yl)-thieno[2,3-d]pyrimidin-2-yl]-piperazin-1-yl}-ethanol] | 7.02 | 6.80 and 6.68 |
|  | CCCc1cc2c(N3CCn4c(nnc4C(F)(F)F)C3)nc(N3CCN(C(=O)OCC)CC3)nc2s1 [Example 1-7, 4-[6-Propyl-4-(3-trifluoromethyl-5,6-dihydro-8H-[1,2,4]triazolo[4,3-a]pyrazin-7-yl)-thieno[2,3-d]pyrimidin-2-yl]-piperazine-1-carboxylic acid ethyl ester] | 6.66 | 6.11 |
|  | CCCc1cc2c(N3CCn4c(nnc4C(F)(F)F)C3)nc(N3CCN(S(=O)(=O)CC)CC3)nc2s1 [Example 1-8, 7-[2-(4-Ethanesulfonyl-piperazin-1-yl)-6-propyl-thieno[2,3-d]pyrimidin-4-yl]-3-trifluoromethyl-5,6,7,8-tetrahydro-[1,2,4]triazolo[4,3-a]pyrazine] | 7.25 | 6.52 |
|  | CCCc1cc2c(N3CCn4c(nnc4C(F)(F)F)C3)nc(N3CCN(C(=O)CO)CC3)nc2s1 [Example 1-9, 2-Hydroxy-1-{4-[6-propyl-4-(3-trifluoromethyl-5,6-dihydro-8H-[1,2,4]triazolo[4,3-a]pyrazin-7-yl)-thieno[2,3-d]pyrimidin-2-yl]-piperazin-1-yl}-ethanone] | 7.15 | 6.30 |
|  | CCCc1cc2c(N3CCn4c(nnc4C(F)(F)F)C3)nc(NCCO)nc2s1 [Example 1-10, 2-[6-Propyl-4-(3-trifluoromethyl-5,6-dihydro-8H-[1,2,4]triazolo[4,3-a]pyrazin-7-yl)-thieno[2,3-d]pyrimidin-2-ylamino]-ethanol] | 6.96 | 6.75 |
|  | CCCc1cc2c(N3CCn4c(nnc4C(F)(F)F)C3)nc(NCC3CCN(Cc4ccccc4)C3)nc2s1 (stereo not shown) [Example 1-11, (1-Benzyl-pyrrolidin-3-ylmethyl)-[6-propyl-4-(3-trifluoromethyl-5,6-dihydro-8H-[1,2,4]triazolo[4,3-a]pyrazin-7-yl)-thieno[2,3-d]pyrimidin-2-yl]-amine] | 6.59 | 5.86 |
|  | CCCc1cc2c(N3CCn4c(nnc4C(F)(F)F)C3)nc(N3CCC(CN)C3)nc2s1 (stereo not shown) [Example 1-12, C-{1-[6-Propyl-4-(3-trifluoromethyl-5,6-dihydro-8H-[1,2,4]triazolo[4,3-a]pyrazin-7-yl)-thieno[2,3-d]pyrimidin-2-yl]-pyrrolidin-3-yl}-methylamine] | 7.08 | 6.65 |
|  | CCCc1cc2c(N3CCn4c(nnc4C(F)(F)F)C3)nc(N3CC[C@@H](N)C3)nc2s1 [Example 1-13, (R)-1-[6-Propyl-4-(3-trifluoromethyl-5,6-dihydro-8H-[1,2,4]triazolo[4,3-a]pyrazin-7-yl)-thieno[2,3-d]pyrimidin-2-yl]-pyrrolidin-3-ylamine] | 7.08 | 7.05 |
|  | CCCc1cc2c(N3CCn4c(nnc4C(F)(F)F)C3)nc(N3CC[C@H](N)C3)nc2s1 [Example 1-14, (S)-1-[6-Propyl-4-(3-trifluoromethyl-5,6-dihydro-8H-[1,2,4]triazolo[4,3-a]pyrazin-7-yl)-thieno[2,3-d]pyrimidin-2-yl]-pyrrolidin-3-ylamine] | 7.22 | 7.47 |
|  | CCCc1cc2c(N3CCn4c(nnc4C(F)(F)F)C3)nc(N3CCOCC3)nc2s1 [Example 1-15, 7-(2-Morpholin-4-yl-6-propyl-thieno[2,3-d]pyrimidin-4-yl)-3-trifluoromethyl-5,6,7,8-tetrahydro-[1,2,4]triazolo[4,3-a]pyrazine] | 7.21 | 7.02 |
|  | CCc1cc2c(N3CCc4c(nc(C)nc4C(F)(F)F)C3)nc(N3CCNC(=O)C3)nc2s1 [Example 6-34, 4-[6-Ethyl-4-(2-methyl-4-trifluoromethyl-5,8-dihydro-6H-pyrido[3,4-d]pyrimidin-7-yl)-thieno[2,3-d]pyrimidin-2-yl]-piperazin-2-one] | 6.92 |  |
|  | CCc1cc2c(N3CCc4c(nc(C)nc4C(F)(F)F)C3)nc(OCC(O)CO)nc2s1 (stereo not shown) [Example 6-35, 3-[6-Ethyl-4-(2-methyl-4-trifluoromethyl-5,8-dihydro-6H-pyrido[3,4-d]pyrimidin-7-yl)-thieno[2,3-d]pyrimidin-2-yloxy]-propane-1,2-diol] | 5.64 |  |
|  | CCCc1cc2c(N3CCc4c(nc(C)nc4C(F)(F)F)C3)nc(N3CCNC(=O)C3)nc2s1 [Example 6-36, 4-[4-(2-Methyl-4-trifluoromethyl-5,8-dihydro-6H-pyrido[3,4-d]pyrimidin-7-yl)-6-propyl-thieno[2,3-d]pyrimidin-2-yl]-piperazin-2-one] | 6.19 |  |
|  | CCc1cc2c(N3CCc4c(nc(-c5ccccc5)nc4C(F)(F)F)C3)nc(N3CCNC(=O)C3)nc2s1 [Example 6-37, 4-[6-Ethyl-4-(2-phenyl-4-trifluoromethyl-5,8-dihydro-6H-pyrido[3,4-d]pyrimidin-7-yl)-thieno[2,3-d]pyrimidin-2-yl]-piperazin-2-one] | 6.40 |  |
|  | CCCc1cc2c(N3CCc4c(nc(-c5ccccc5)nc4C(F)(F)F)C3)nc(N3CCNC(=O)C3)nc2s1 [Example 6-38, 4-[4-(2-Phenyl-4-trifluoromethyl-5,8-dihydro-6H-pyrido[3,4-d]pyrimidin-7-yl)-6-propyl-thieno[2,3-d]pyrimidin-2-yl]-piperazin-2-one] | 5.35 |  |
|  | CCc1cc2c(N3CCc4c(nc(-c5ccoc5)nc4C(F)(F)F)C3)nc(N3CCNC(=O)C3)nc2s1 [Example 6-39, 4-[6-Ethyl-4-(2-furan-3-yl-4-trifluoromethyl-5,8-dihydro-6H-pyrido[3,4-d]pyrimidin-7-yl)-thieno[2,3-d]pyrimidin-2-yl]-piperazin-2-one] | 5.82 |  |
|  | CCc1cc2c(N3CCc4c(nc(-c5ccoc5)nc4C(F)(F)F)C3)nc(NCC(O)CO)nc2s1 (stereo not shown) [Example 6-40, 3-[6-Ethyl-4-(2-furan-3-yl-4-trifluoromethyl-5,8-dihydro-6H-pyrido[3,4-d]pyrimidin-7-yl)-thieno[2,3-d]pyrimidin-2-ylamino]-propane-1,2-diol] | 5.71 |  |
| 23.6 | CCc1cc2c(N3CCc4c([nH]n(C)c4=O)C3)nc(N3CCNC(=O)C3)nc2s1 [Example 6-41, 6-[6-Ethyl-2-(3-oxo-piperazin-1-yl)-thieno[2,3-d]pyrimidin-4-yl]-2-methyl-1,2,4,5,6,7-hexahydro-pyrazolo[3,4-c]pyridin-3-one] |  |  |
| 26.4 | CCc1cc2c(N3CCc4c([nH]n(C)c4=O)C3)nc(OCC(O)CO)nc2s1 (stereo not shown) [Example 6-42, 6-[2-(2,3-Dihydroxy-propoxy)-6-ethyl-thieno[2,3-d]pyrimidin-4-yl]-2-methyl-1,2,4,5,6,7-hexahydro-pyrazolo[3,4-c]pyridin-3-one] |  |  |
|  | CCc1cc2c(N3CCc4c([nH]n(CCO)c4=O)C3)nc(N3CCNC(=O)C3)nc2s1 [Example 6-43, 6-[6-Ethyl-2-(3-oxo-piperazin-1-yl)-thieno[2,3-d]pyrimidin-4-yl]-2-(2-hydroxy-ethyl)-1,2,4,5,6,7-hexahydro-pyrazolo[3,4-c]pyridin-3-one] | 4.33 |  |
|  | CCc1cc2c(N3CCc4c([nH]n(-c5ccccc5)c4=O)C3)nc(N3CCNC(=O)C3)nc2s1 [Example 6-44, 6-[6-Ethyl-2-(3-oxo-piperazin-1-yl)-thieno[2,3-d]pyrimidin-4-yl]-2-phenyl-1,2,4,5,6,7-hexahydro-pyrazolo[3,4-c]pyridin-3-one] | 4.67 |  |
